Experimental data: the CheMixHub ionic liquid set
Several values for one entry are separate records, joined by “and”; a condition that tells them apart may be missing. Identical values can stand only once. ± gives the uncertainty stated by the source.

Assay: xn = mol fraction of the nth substance listed

CC[n+]1ccn(C)c1.O=S(=O)([N-]S(=O)(=O)C(F)(F)F)C(F)(F)F + COC(=O)OC
viscosity [mPa·s], 101.3 kPa
Settings	288.15 K	293.15 K	298.15 K	303.15 K	308.15 K	313.15 K
x1 = 0.00265	0.69 ± 0.015	0.644 ± 0.014	0.604 ± 0.013	0.567 ± 0.012	0.534 ± 0.012	0.504 ± 0.011
x1 = 0.005572	0.717 ± 0.016	0.67 ± 0.015	0.627 ± 0.014	0.588 ± 0.013	0.554 ± 0.012	0.523 ± 0.011
x1 = 0.006266	0.73 ± 0.016	0.681 ± 0.015	0.637 ± 0.014	0.599 ± 0.013	0.563 ± 0.012	0.532 ± 0.012
x1 = 0.006515	0.73 ± 0.016	0.682 ± 0.015	0.637 ± 0.014	0.598 ± 0.013	0.563 ± 0.012	0.531 ± 0.012
x1 = 0.008405	0.748 ± 0.016	0.698 ± 0.015	0.653 ± 0.014	0.612 ± 0.013	0.576 ± 0.013	0.543 ± 0.012
x1 = 0.01068	0.778 ± 0.017	0.724 ± 0.016	0.676 ± 0.015	0.634 ± 0.014	0.596 ± 0.013	0.562 ± 0.012
x1 = 0.01231	0.795 ± 0.017	0.74 ± 0.016	0.691 ± 0.015	0.648 ± 0.014	0.609 ± 0.013	0.573 ± 0.013
x1 = 0.01323	0.813 ± 0.018	0.757 ± 0.017	0.707 ± 0.015	0.662 ± 0.014	0.623 ± 0.014	0.587 ± 0.013
x1 = 0.01407	0.821 ± 0.018	0.763 ± 0.017	0.713 ± 0.016	0.668 ± 0.015	0.628 ± 0.014	0.591 ± 0.013
x1 = 0.01462	0.823 ± 0.018	0.766 ± 0.017	0.716 ± 0.016	0.671 ± 0.015	0.63 ± 0.014	0.594 ± 0.013
x1 = 0.01829	0.861 ± 0.019	0.801 ± 0.017	0.747 ± 0.016	0.699 ± 0.015	0.656 ± 0.014	0.618 ± 0.014
x1 = 0.01968	0.873 ± 0.019	0.812 ± 0.018	0.757 ± 0.017	0.708 ± 0.015	0.664 ± 0.015	0.626 ± 0.014
x1 = 0.02012	0.879 ± 0.019	0.817 ± 0.018	0.762 ± 0.017	0.713 ± 0.016	0.669 ± 0.015	0.63 ± 0.014
x1 = 0.02014	0.878 ± 0.019	0.816 ± 0.018	0.76 ± 0.017	0.712 ± 0.016	0.667 ± 0.015	0.628 ± 0.014
x1 = 0.02562	0.928 ± 0.02	0.861 ± 0.019	0.804 ± 0.018	0.751 ± 0.016	0.704 ± 0.015	0.662 ± 0.014
x1 = 0.03021	0.956 ± 0.021	0.886 ± 0.019	0.824 ± 0.018	0.769 ± 0.017	0.72 ± 0.016	0.676 ± 0.015
x1 = 0.03102	0.964 ± 0.021	0.893 ± 0.02	0.83 ± 0.018	0.774 ± 0.017	0.725 ± 0.016	0.68 ± 0.015
x1 = 0.03106	0.961 ± 0.021	0.89 ± 0.019	0.828 ± 0.018	0.773 ± 0.017	0.723 ± 0.016	0.68 ± 0.015
x1 = 0.03348	0.982 ± 0.021	0.91 ± 0.02	0.846 ± 0.018	0.79 ± 0.017	0.739 ± 0.016	0.694 ± 0.015
x1 = 0.03766	1.018 ± 0.022	0.943 ± 0.021	0.877 ± 0.019	0.818 ± 0.018	0.765 ± 0.017	0.718 ± 0.016
x1 = 0.04567	1.086 ± 0.024	1.005 ± 0.022	0.934 ± 0.02	0.871 ± 0.019	0.814 ± 0.018	0.764 ± 0.017
x1 = 0.04728	1.111 ± 0.024	1.029 ± 0.022	0.945 ± 0.021	0.881 ± 0.019	0.824 ± 0.018	0.773 ± 0.017
x1 = 0.05348	1.15 ± 0.025	1.064 ± 0.023	0.988 ± 0.022	0.92 ± 0.02	0.86 ± 0.019	0.807 ± 0.018
x1 = 0.05932	1.205 ± 0.026	1.113 ± 0.024	1.033 ± 0.023	0.962 ± 0.021	0.898 ± 0.02	0.841 ± 0.018

CO + COP(=O)([O-])OC.Cn1cc[n+](C)c1
101 kPa, x1 = 1
Settings	viscosity [mPa·s]
303.15 K	0.521 ± 0.011
318.15 K	0.44 ± 0.009

CO + CS(=O)(=O)[O-].C[N+](C)(CCO)CCO
101 kPa, x2 = 0
Settings	viscosity [mPa·s]
298.15 K	0.576 ± 0.038
303.15 K	0.539 ± 0.035
308.15 K	0.506 ± 0.033
313.15 K	0.477 ± 0.031
318.15 K	0.453 ± 0.03
323.15 K	0.43 ± 0.03

CC[n+]1ccn(C)c1.F[B-](F)(F)F + CS(C)=O
Settings	electrical conductivity	viscosity [mPa·s]
293.15 K, 100 kPa, x2 = 0.4781	–	19.1 ± 1.9
298.1 K, 100 kPa, x1 = 0.021	0.55 S/m and 0.79 S/m	–
298.1 K, 100 kPa, x1 = 0.218	1.77 ± 0.07 S/m	–
298.1 K, 100 kPa, x1 = 0.381	1.56 ± 0.06 S/m	–
298.1 K, 100 kPa, x1 = 0.623	1.37 ± 0.06 S/m	–
298.15 K, 100 kPa, x2 = 0.4098	–	19.1 ± 1.9
303.15 K, 100 kPa, x2 = 0.7866	–	4.91 ± 0.49
303.15 K, 101 kPa, x2 = 0.2996	–	17.26 ± 0.25
303.15 K, 101 kPa, x2 = 0.6002	–	8.52 ± 0.12
303.15 K, 101 kPa, x2 = 0.7996	–	4.395 ± 0.058
313.15 K, 100 kPa, x2 = 0	–	24.8 ± 2.5
313.15 K, 100 kPa, x2 = 0.2931	–	15.4 ± 1.5
313.15 K, 101 kPa, x2 = 0.2996	–	12.88 ± 0.19
323.15 K, 101 kPa, x2 = 0.4	–	8.2 ± 0.12
323.15 K, 101 kPa, x2 = 0.9002	–	1.996 ± 0.026
333.15 K, 101 kPa, x2 = 0.9002	–	1.71 ± 0.023
343.15 K, 100 kPa, x2 = 0	–	11.7 ± 1.2
343.15 K, 100 kPa, x2 = 0.2931	–	7.6 ± 0.76
343.15 K, 100 kPa, x2 = 0.8959	–	1.61 ± 0.16
353.15 K, 100 kPa, x2 = 0.4781	–	4.48 ± 0.45

COCCCC[n+]1ccn(C)c1.NCC(=O)[O-] + CS(C)=O
100 kPa
Settings	viscosity [mPa·s]
288.15 K, x1 = 0.4986	49.18 ± 0.65
293.15 K, x1 = 0.4986	37.24 ± 0.51
293.15 K, x1 = 0.6006	51.07 ± 0.57
293.15 K, x1 = 0.7941	84.3 ± 1.8
298.15 K, x1 = 0.7941	65.57 ± 0.92
298.15 K, x1 = 1	97.2 ± 2.5
303.15 K, x1 = 0.1009	4.18 ± 0.05
303.15 K, x1 = 0.299	10.12 ± 0.12
308.15 K, x1 = 0.1009	3.59 ± 0.04
308.15 K, x1 = 0.299	8.41 ± 0.09
308.15 K, x1 = 0.701	34.9 ± 0.4
318.15 K, x1 = 0.1009	2.72 ± 0.03

CO + C[N+](C)(C)CCC[N+]1(C)CCCCC1.N#C[N-]C#N.N#C[N-]C#N
100 kPa, x2 = 0
Settings	viscosity [mPa·s]
293.15 K	0.584 ± 0.059
323.15 K	0.395 ± 0.04

CO + C[N+](C)(C)CCO.NCC(=O)[O-]
100 kPa, x2 = 0
Settings	viscosity [mPa·s]
298.15 K	0.58 ± 0.2
303.15 K	0.55 ± 0.2
308.15 K	0.51 ± 0.2
313.15 K	0.47 ± 0.2
318.15 K	0.44 ± 0.2
323.15 K	0.41 ± 0.2

OCCCCCCO + C[N+](C)(C)Cc1ccccc1.[Cl-]
101.13 kPa, x2 = 0.5
Settings	electrical conductivity [S/m]	viscosity [mPa·s]
298 K	0.084 ± 0.017	–
308 K	–	73 ± 14
